These results are taken from PubChem BioAssay (NCI).

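Values below derive from 48-hour exposures of cells grown in 96-well plates, with endpoints linearly interpolated between the two concentrations bracketing the appropriate inhibition level. The concentration for full growth arrest is given as TGI.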

Holding throughout (assay): NCI-60 cell line screen, 48 h
In test [1] the test system is COLO 205 colon.
The test system of test [2] is SR leukemia.
The subject of test [3] is NCI-H226 lung.
In test [4] the test system is SK-MEL-5 melanoma.
For test [5], the system named is MOLT-4 leukemia.
Test [6] relates to SF-268 CNS.
The test system of test [7] is T-47D breast.
The test system of test [8] is K-562 leukemia.
For test [9], the system named is 786-0 renal.
Test [10] has as its system MDA-N.
Test [11] deals with SK-MEL-2 melanoma.
Test [12] has as its system BT-549 breast.
Test [13] has as its system HCT-116 colon.
The test system of test [14] is HL-60(TB) leukemia.
The test system of test [15] is A498 renal.

Regarding `CN(C)/C(N)=N/C(N)=Nc1cccc(Cl)c1`, the TGI in test [1] was 49.8 µM; in test [2], above 100 µM; in test [3], 79.3 µM; in test [4], 74.6 µM; in test [5], above 100 µM; in test [6], above 100 µM. Also, the TGI was 77.2 µM in test [7]; above 100 µM in test [8]; above 100 µM in [9]; above 100 µM in test [10]; above 100 µM in [11]; 92.5 µM in [12]. The same molecule registered a TGI in test [13] above 100 µM.

Consider `CC1CC(C)[C@H](O)C([C@H](O)CC2CC(=O)N(C)C(=O)C2)C1` (stereo partly specified), for which the TGI in test [1], in test [3], in test [4], in test [5], in test [6] and in test [7] was above 100 µM each time. Also, the TGI in test [14], in test [8], in test [9], in test [10], in test [11] and in [12] was above 100 µM each time. For the same molecule, the TGI in test [15] and in test [13] was above 100 µM in each case.

On to `O=c1[nH]c(=O)n(C2CC(O)C(CO)O2)cc1NN=NCCc1ccccc1` (stereo unspecified), for which the TGI in test [1], in [2], in test [3], in test [4], in [5] and in test [6] was above 100 µM in each case. Moreover, the TGI in test [7], in test [14], in test [8], in test [9], in test [10] and in test [13] was above 100 µM throughout.

In the case of `CCN(CC)CCNc1ccc2ncn3c4c(OC)ccc(OC)c4c(=O)c1c23`, the TGI in test [1] is 20.4 µM; in [2] it was 43.6 µM; in test [3] it was above 100 µM; in test [4], 31.4 µM; in test [5], 30.4 µM; in [6], 17.2 µM. Further, the TGI in test [7] was above 100 µM; in test [8], 49.4 µM; in [9], 70.9 µM; in test [10], 25.4 µM; in test [15], above 100 µM; in [13] it was 17.3 µM.

As for `COc1ccc(/C(CCl)=C(\Nc2ccccc2)c2ccc(OC)c(OC)c2)cc1OC`, the TGI in [1], in test [3], in [4], in [5], in [6] and in test [7] was above 100 µM in each case. In addition, the TGI in test [14], in [8], in test [9], in test [10], in test [11] and in test [12] was above 100 µM each time. In addition, the TGI in test [15] and in test [13] was above 100 µM throughout.

On to `C=CCN1C(=O)CC1N(CC=C)S(=O)(=O)c1ccc(C)cc1` (stereo unspecified), for which the TGI in test [1], in test [2], in test [3], in [4], in test [5] and in test [14] was above 100 µM in each case. The TGI in test [8], in test [9], in [10], in test [12], in test [15] and in test [13] was above 100 µM in each case.

Take `Oc1[nH]c2ccccc2c1N=NC(=S)N1CCCCC1`: the TGI in test [1] was 11.2 µM; in test [2], 4.31 µM; in test [3], 5.02 µM; in test [4] it was 1.03 µM; in test [5] it was 2.15 µM; in test [6], 14.3 µM. In addition, the TGI in test [7] was 20 µM; in test [9] it was 6.64 µM; in [10], 15.5 µM; in test [11], 6.12 µM; in [15], 1.99 µM; in [13], 1.54 µM.

For `CC(NC(=O)C(OC(=O)C(C)NC(=O)OC(C)(C)C)C(C)C)C(=O)OC(C(=O)O)C(C)C` (stereo unspecified), the TGI in test [1], in [2], in test [3], in test [4], in [5] and in test [6] was above 100 µM throughout. Moreover, the TGI in [7], in [8], in [9], in test [10], in test [11] and in test [12] was above 100 µM in each case.

With `CC1=NN(c2nc(N)nc(/C(C#N)=C/c3ccc([N+](=O)[O-])o3)n2)C(C)(C)C1`, the TGI was found to be 3.02 µM in test [1]; 6.9 µM in [3]; 17 µM in test [4]; 6.12 µM in [5]; 16.2 µM in [6]; 7.05 µM in [7]. The TGI in test [14] is 6.32 µM; in test [8] it was 1.13 µM; in test [9], 2.99 µM; in [10], above 100 µM; in [11], 16.7 µM; in [12] it was 9.24 µM. The TGI in test [15] was determined as 32.6 µM; in test [13], 2.94 µM.

For `COc1ccc(-c2cc(-c3ccc(Cl)cc3)n(C3OC(CO)C(O)C(O)C3O)c(=S)c2C#N)cc1` (stereo unspecified), the TGI in test [1], in [2], in test [4], in test [5], in test [6] and in test [7] was above 100 µM in each case. Further, the TGI was above 100 µM in [8]; 35.5 µM in [9]; above 100 µM in [10]; 97.9 µM in test [11]; above 100 µM in [12]; above 100 µM in test [13].

On to `COc1cccc(/C(CC(O)(C(F)(F)F)C(F)(F)F)=N\N(C)C)c1`, for which the TGI in [1], in test [2], in test [3], in test [4], in test [5] and in test [6] was above 100 µM throughout. The TGI in test [7], in test [14], in test [8], in test [9], in test [10] and in test [11] was above 100 µM in each case. Moreover, the TGI in [15] and in [13] was above 100 µM each time.
